Results: ChEMBL document CHEMBL1138310, “Effect of structural and conformation modifications, including backbone cyclization, of hydrophilic hexapeptides on their intestinal permeability and enzymatic stability” (J Med Chem, 2007)
*1 amine or outer side, *2 acyl side, *3 side chain or, on linkers, in order; H or OH if unused. Where a SMILES comes first, the peptide text is derived from it. Bridges are numbered along the chain shown (N, C = ends). [ ]: non-standard residue; d: D form. Phe(Nα-(CH2)3CO) = O=C([C@H](Cc1ccccc1)N(CCCC(=O)[*:3])[*:1])[*:2]; Phe(Nα-CH2CH2CO) = O=C([C@H](Cc1ccccc1)N(CCC(=O)[*:3])[*:1])[*:2]; N(2-aminoethyl)Phe = O=C([C@H](Cc1ccccc1)N(CCN[*:3])[*:1])[*:2]; NMeF = CN[C@@H](Cc1ccccc1)C(=O)O; Sar = CNCC(=O)O

How the values were obtained:
[1] = test system: Intestine; assay: Apparent permeability across rat small intestine; format: ADME, tissue-based
[2] = Apparent permeability across Caco-2 cells; format: ADME, cell-based; settings: human
[3] = Metabolic stability in rat brush border vesicles; format: ADME
[4] = Lipophilicity, log D in octanol at pH 7.4; format: physicochemical
[5] = Apparent permeability across Caco-2 cells via paracellular pathway; format: ADME, cell-based; settings: human
[6] = Permeability in biomimetic membrane layer DMPC vesicles assessed as decrease in fluorescence at 30 uM by colorimetric mixed-vesicle assay; format: ADME, cell membranes
[7] = Permeability across artificial membrane by PAMPA model; format: ADME; settings: read-out: permeability

C[C@@H]1NC(=O)[C@H](Cc2ccccc2)NCCC(=O)NCCN([C@@H](Cc2ccccc2)C(N)=O)C(=O)CNC(=O)CNC(=O)CNC1=O (H-[Phe(Nα-CH2CH2CO)]AGGG[N(2-aminoethyl)Phe]-NH2; lactam 1-6)
Papp [1]: 3.89 ×10⁻⁶ cm/s | Papp [2]: 1.9 ×10⁻⁶ cm/s | Stability [3]: Stable

NC(=O)[C@H](Cc1ccccc1)N1CCNC(=O)CCCCN[C@@H](Cc2ccccc2)C(=O)NCC(=O)NCC(=O)NCC(=O)NCC1=O
Papp [1]: 5.02 ×10⁻⁶ cm/s | Papp [2]: 1.5 ×10⁻⁶ cm/s | Stability [3]: Stable

C[C@@H]1NC(=O)[C@H](C)NC(=O)[C@H](Cc2ccccc2)NCCC(=O)NCCN([C@@H](Cc2ccccc2)C(N)=O)C(=O)[C@H](C)NC(=O)[C@H](C)NC1=O (H-[Phe(Nα-CH2CH2CO)]AAAA[N(2-aminoethyl)Phe]-NH2; lactam 1-6)
Papp [1]: 5.63 ×10⁻⁶ cm/s | Papp [2]: 1.47 ×10⁻⁶ cm/s | Stability [3]: Stable | logD [4]: 0.49

CN[C@@H](Cc1ccccc1)C(=O)N[C@@H](C)C(=O)N[C@@H](C)C(=O)NCC(=O)NCC(=O)N(C)[C@@H](Cc1ccccc1)C(N)=O (H-[NMeF]AAGG[NMeF]-NH2)
Papp [1]: 0.99 ×10⁻⁶ cm/s | Papp [2]: 0.87 ×10⁻⁶ cm/s

C[C@@H]1NC(=O)[C@H](C)NC(=O)[C@H](Cc2ccccc2)NCCC(=O)NCCN([C@@H](Cc2ccccc2)C(N)=O)C(=O)CNC(=O)CNC1=O (H-[Phe(Nα-CH2CH2CO)]AAGG[N(2-aminoethyl)Phe]-NH2; lactam 1-6)
Papp [1]: 5.26 ×10⁻⁶ cm/s | Papp [2]: 3.22 ×10⁻⁶ cm/s | Stability [3]: Stable

CN1CC(=O)NCC(=O)NCC(=O)NCC(=O)N([C@@H](Cc2ccccc2)C(N)=O)CCNC(=O)CCN[C@@H](Cc2ccccc2)C1=O (H-[Phe(Nα-CH2CH2CO)][Sar]GGG[N(2-aminoethyl)Phe]-NH2; lactam 1-6)
Papp [1]: 4.58 ×10⁻⁶ cm/s | Papp [2]: 2.22 ×10⁻⁶ cm/s | Papp [5]: 7.58 ×10⁻⁶ cm/s | Stability [3]: Stable | permeability [6]: 35% | logD [4]: -0.57

Cc1cc(=O)n(-c2ccccc2)n1C [ANTIPYRINE]
Papp [7]: 1.18 ×10⁻⁶ cm/s

C[C@@H]1NC(=O)[C@H](C)NC(=O)[C@H](C)NC(=O)[C@H](Cc2ccccc2)NCCC(=O)NCCN([C@@H](Cc2ccccc2)C(N)=O)C(=O)CNC1=O (H-[Phe(Nα-CH2CH2CO)]AAAG[N(2-aminoethyl)Phe]-NH2; lactam 1-6)
Papp [1]: 6.16 ×10⁻⁶ cm/s | Papp [2]: 3.47 ×10⁻⁶ cm/s | Stability [3]: Stable

NC(=O)[C@H](Cc1ccccc1)N1CCNC(=O)CCN[C@@H](Cc2ccccc2)C(=O)NCC(=O)NCC(=O)NCC(=O)NCC1=O (H-[Phe(Nα-CH2CH2CO)]GGGG[N(2-aminoethyl)Phe]-NH2; lactam 1-6)
Papp [2]: 5.43 ×10⁻⁶ cm/s | Stability [3]: Stable | permeability [6]: 40% | logD [4]: -0.41

CN1CC(=O)N(C)CC(=O)N([C@@H](Cc2ccccc2)C(N)=O)CCNC(=O)CCN[C@@H](Cc2ccccc2)C(=O)N(C)CC(=O)N(C)CC1=O (H-[Phe(Nα-CH2CH2CO)][Sar][Sar][Sar][Sar][N(2-aminoethyl)Phe]-NH2; lactam 1-6)
Papp [1]: 4.87 ×10⁻⁶ cm/s | Papp [2]: 1.56 ×10⁻⁶ cm/s | Stability [3]: Stable

C[C@]12CC[C@H]3[C@@H](CCC4=CC(=O)CC[C@@]43C)[C@@H]1CC[C@@H]2O [TESTOSTERONE]
Papp [7]: 8.67 ×10⁻⁶ cm/s

CN[C@@H](Cc1ccccc1)C(=O)N(C)CC(=O)N(C)CC(=O)NCC(=O)NCC(=O)N(C)[C@@H](Cc1ccccc1)C(N)=O (H-[NMeF][Sar][Sar]GG[NMeF]-NH2)
Papp [1]: 1 ×10⁻⁶ cm/s | Papp [2]: 0.46 ×10⁻⁶ cm/s

C[C@H](NC(=O)[C@H](C)NC(=O)[C@H](Cc1ccccc1)NCCC(=O)O)C(=O)N[C@@H](C)C(=O)N[C@@H](C)C(=O)N(CCN)[C@@H](Cc1ccccc1)C(N)=O (H-[Phe(Nα-CH2CH2CO)]AAAA[N(2-aminoethyl)Phe]-NH2)
Papp [1]: 0.67 ×10⁻⁶ cm/s | Papp [2]: 0.2 ×10⁻⁶ cm/s

CN[C@@H](Cc1ccccc1)C(=O)N(C)CC(=O)NCC(=O)NCC(=O)NCC(=O)N(C)[C@@H](Cc1ccccc1)C(N)=O (H-[NMeF][Sar]GGG[NMeF]-NH2)
Papp [1]: 0.75 ×10⁻⁶ cm/s | Papp [2]: 0.58 ×10⁻⁶ cm/s | Papp [5]: 1.74 ×10⁻⁶ cm/s | permeability [6]: 35%

CN1CC(=O)NCC(=O)NCC(=O)N([C@@H](Cc2ccccc2)C(N)=O)CCNC(=O)CCN[C@@H](Cc2ccccc2)C(=O)N(C)CC1=O (H-[Phe(Nα-CH2CH2CO)][Sar][Sar]GG[N(2-aminoethyl)Phe]-NH2; lactam 1-6)
Papp [1]: 3.94 ×10⁻⁶ cm/s | Papp [2]: 2.45 ×10⁻⁶ cm/s | Stability [3]: Stable

CN[C@@H](Cc1ccccc1)C(=O)NCC(=O)NCC(=O)NCC(=O)NCC(=O)N(C)[C@@H](Cc1ccccc1)C(N)=O (H-[NMeF]GGGG[NMeF]-NH2)
Papp [1]: 0.73 ×10⁻⁶ cm/s | Papp [2]: 1.82 ×10⁻⁶ cm/s | permeability [6]: 40%

CN1CC(=O)NCC(=O)N([C@@H](Cc2ccccc2)C(N)=O)CCNC(=O)CCN[C@@H](Cc2ccccc2)C(=O)N(C)CC(=O)N(C)CC1=O (H-[Phe(Nα-CH2CH2CO)][Sar][Sar][Sar]G[N(2-aminoethyl)Phe]-NH2; lactam 1-6)
Papp [1]: 5.63 ×10⁻⁶ cm/s | Papp [2]: 2.95 ×10⁻⁶ cm/s | Stability [3]: Stable

OC[C@@H](O)[C@@H](O)[C@H](O)[C@H](O)CO [MANNITOL]
Papp [1]: 5 ×10⁻⁶ cm/s | Papp [2]: 2.2 ×10⁻⁶ cm/s

NC(=O)[C@H](Cc1ccccc1)N1CCNC(=O)CCCN[C@@H](Cc2ccccc2)C(=O)NCC(=O)NCC(=O)NCC(=O)NCC1=O (H-[Phe(Nα-(CH2)3CO)]GGGG[N(2-aminoethyl)Phe]-NH2; lactam 1-6)
Papp [1]: 4.2 ×10⁻⁶ cm/s | Papp [2]: 2.73 ×10⁻⁶ cm/s | Stability [3]: Stable

Nc1nc2c(ncn2COCCO)c(=O)[nH]1 [ACYCLOVIR]
Papp [7]: 0.01 ×10⁻⁶ cm/s
